Data: patent publication US6391327B1, “Pesticidal composition” (priority 1998, dated 2002)
Where two headings read alike, the source gives them in different places.

Assays:
[1] = test system: housefly (Musca domestica) which is resistant to pyrethroid; type: in vivo; details: topical, 2 days later, average of 3
From the text: One half (0.5)μL of the following acetone dissolving solution wherein the concentration was adjusted to set forth a dosage given below, was applied to the back thoracic region of a housefly (Musca domestica) which is resistant to pyrethroid and the mortality was examined 2 days later.

[2] = test system: Formosan subterranean termites (Coptotermes formosanus); assay: Soil tunneling test in glass tube with Formosan subterranean termites; type: in vivo; details: concentration of application 20 ppm, a week later, three repeats
Procedure: Three (3) cm of soil was packed into the central inner portion of a glass tube that has an inner diameter of 1.7 cm and is 15 cm long, and on one surface of the soil, 0.7 mL of each aqueous solution that has the examined compound formulated to a determined dilution (examined compound and applied concentration given in table 3). Subsequently, 4% agar was inserted onto both surfaces of the soil, 50 worker Formosan subterranean termites (Coptotermes formosanus) and 5 soldier Formosan subterranean termites were deposited into side of the inner part of the tube wherein no compound was applied, and the tunneled soil condition by the termites was examined a week later. The example was repeated thrice.
Within the results of table 3, A represents a condition wherein the termites tunneled through the surface of the soil of the treated side and the non-treated side, B represents a condition wherein the surface of the soil of the treated side was tunneled through and the agar was tunneled halfway, C represents a condition wherein the surface of the soil of the treated side was incompletely tunneled through and the agar had no visible tunneling.

SMILES	mortality (%) ([1]; dosage 1.25 μg per insect)	mortality (%) ([1]; dosage 5 μg per insect)	mortality (%) ([1]; dosage 10 μg per insect)	mortality (%) ([1]; dosage 2.5 μg per insect)	results (tunneled soil condition by the termites) [2]	mortality (%) ([1]; dosage 0.625 μg per insect)
C/C(=N\C#N)N(C)Cc1ccc(Cl)nc1 [Compound A, (E)-N^1-[(6-chloro-3-pyridyl)methyl]-N^2-cyano-N^1-methylacetamidine]	15	15	5	–	–	–
C#CCC1=C(C)C(OC(=O)C2C(C=C(C)C)C2(C)C)CC1=O (mixture of isomers) [Prallethrin, (S)-2-methyl-4-oxo-3-prop-2-ynylcyclopent-2-enyl (1R)-cis,trans-2,2-dimethyl-3-(2-methylprop-1-enyl)cyclopropanecarboxylate]	6.7	30	–	10	–	–
CN1COCN(Cc2cnc(Cl)s2)C1=N[N+](=O)[O-] [Compound D, 3-[(2-chloro-5-thiazolyl)methyl]-5-methyl-4-nitroiminotetrahydro-1,3,5-oxadiazine]	–	–	–	–	AAA	–
CNC(=N[N+](=O)[O-])NCC1CCOC1 (stereo not shown) [Compound B, 1-(tetrahydrofuran-3-yl)methyl-3-methyl-2-nitroguanidine]	45	–	–	–	ACA	10
